In patent US12516024B2, “KDM4 inhibitors” (ALBERT-LUDWIGS-UNIVERSITY FREIBURG, priority 2017, dated 2026):

Legend:
KDM5B = KDM5B (Homo sapiens, UniProt Q9UGL1); assay: KDM demethylase inhibition (IC50), KDM5B; format: biochemical; conditions: in words
Method: The expression levels in the BCSC cells of the various KDM4 family members were evaluated by western blot analysis. Metzger et al., LSD1 demethylates repressive histone marks to promote and rogen receptor-dependent transcription, 437 Nature 436 (2005). […] These observations indicate that KDM4 are therapeutic targets for treatment of BCSC populations. Accordingly, a screen to characterize KDM4(i) was performed to explore compounds suitable for treating cancers, in particular cancers such as therapy resistant clonal BCSC-originating tumors.

[1] = Pharmacokinetic study iv/po; format: in vivo; conditions: dose iv/po 5/10 mg/kg

Chain of KDM5B (Q9UGL1 whole entry): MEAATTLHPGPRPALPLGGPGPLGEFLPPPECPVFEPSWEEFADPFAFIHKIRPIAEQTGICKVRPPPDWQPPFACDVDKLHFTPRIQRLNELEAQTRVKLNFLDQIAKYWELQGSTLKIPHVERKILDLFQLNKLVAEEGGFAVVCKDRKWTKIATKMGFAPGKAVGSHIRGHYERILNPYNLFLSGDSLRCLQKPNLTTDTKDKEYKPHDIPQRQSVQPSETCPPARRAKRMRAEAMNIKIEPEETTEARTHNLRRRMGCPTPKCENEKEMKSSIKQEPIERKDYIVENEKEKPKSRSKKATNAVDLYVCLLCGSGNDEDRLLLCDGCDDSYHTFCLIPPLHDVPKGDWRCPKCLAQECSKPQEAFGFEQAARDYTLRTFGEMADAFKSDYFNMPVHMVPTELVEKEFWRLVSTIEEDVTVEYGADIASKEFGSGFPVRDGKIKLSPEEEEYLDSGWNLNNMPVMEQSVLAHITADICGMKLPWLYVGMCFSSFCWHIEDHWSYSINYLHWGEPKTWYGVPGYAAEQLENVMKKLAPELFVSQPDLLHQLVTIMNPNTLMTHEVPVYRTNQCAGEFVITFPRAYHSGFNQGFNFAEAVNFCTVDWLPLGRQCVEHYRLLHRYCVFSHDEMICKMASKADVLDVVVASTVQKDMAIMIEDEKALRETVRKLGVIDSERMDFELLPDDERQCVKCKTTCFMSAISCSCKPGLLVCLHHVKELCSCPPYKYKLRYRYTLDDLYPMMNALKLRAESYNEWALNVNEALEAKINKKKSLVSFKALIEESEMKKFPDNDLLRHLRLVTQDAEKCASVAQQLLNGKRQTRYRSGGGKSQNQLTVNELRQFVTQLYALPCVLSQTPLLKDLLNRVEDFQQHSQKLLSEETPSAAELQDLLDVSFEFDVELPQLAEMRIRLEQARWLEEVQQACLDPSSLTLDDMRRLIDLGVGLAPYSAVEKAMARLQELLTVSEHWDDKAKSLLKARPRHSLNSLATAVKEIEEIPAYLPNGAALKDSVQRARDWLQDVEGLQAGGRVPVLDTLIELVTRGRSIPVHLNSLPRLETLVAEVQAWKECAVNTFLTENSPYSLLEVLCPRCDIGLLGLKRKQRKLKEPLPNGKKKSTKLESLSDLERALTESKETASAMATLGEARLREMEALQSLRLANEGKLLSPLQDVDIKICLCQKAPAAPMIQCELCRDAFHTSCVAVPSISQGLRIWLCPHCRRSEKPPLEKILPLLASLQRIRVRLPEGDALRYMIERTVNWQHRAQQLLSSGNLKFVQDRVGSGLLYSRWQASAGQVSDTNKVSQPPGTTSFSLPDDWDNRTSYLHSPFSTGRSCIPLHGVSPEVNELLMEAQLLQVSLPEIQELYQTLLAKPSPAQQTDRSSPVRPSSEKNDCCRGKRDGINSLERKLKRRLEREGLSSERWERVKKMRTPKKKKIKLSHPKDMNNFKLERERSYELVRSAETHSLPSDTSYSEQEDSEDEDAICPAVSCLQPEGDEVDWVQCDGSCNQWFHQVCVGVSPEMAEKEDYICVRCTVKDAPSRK

- effect on the demethylase activity of KDM5B (KDM5B): weak effect
- bioavailability ([1]; plasma, read-out: F % (bioavailability)): 30.4%
- po ½ ([1]; po): 2.57 h
Compound: CN(c1ccccc1)c1ccc2c(c1)CCC[C@H]2CNc1cnccc1C(=O)O [Compound I, 3-({[(1R)-6-[methyl(phenyl)amino]-1,2,3,4-tetrahydronaphthalen-1-yl]methyl}amino)pyridine-4-carboxylic acid]
